Reference: PMC6254286, “Quantitative Structure − Antiprotozoal Activity Relationships of Sesquiterpene Lactones ^†” (Molecules, 2009)
pIC50: −log10 of the molar value. Read-outs that look alike come from different tables or passages of the source.

Key:
[1] = test system: rat skeletal myoblasts (L6 cells); experiment: in vitro
Method: (§1) Trypanosoma brucei rhodesiense and cytotoxicity against L6 cells. Minimum Essential Medium with Earle’s salts (50 µL) supplemented with 0.2 mM 2-mercapto-ethanol, 1 mM Na-pyruvate and 15% heat-inactivated horse serum was added to each well of a 96-well microtiter plate. […] Then 10^4 bloodstream forms of Trypanosoma brucei rhodesiense STIB 900 in 50 µL of medium were added to each well and the plate incubated at 37°C under a 5% CO2 atmosphere for 72 hours. […] The plate was then read in a Spectramax Gemini XS microplate fluorometer (Molecular Devices Corporation, Sunnyvale, CA, USA) using an excitation wavelength of 536 nm and emission wavelength of 588 nm. Fluorescence development was measured and expressed as percentage of the control. Data were transferred into the graphic programme Softmax Pro (Molecular Devices) which calculated IC50 values. Cytotoxicity was assessed using a similar protocol and rat skeletal myoblasts (L6 cells). […] All following steps were according to the T. b. rhodesiense protocol.

[2] = Cytotoxicity against L6 cells (Alamar blue); conditions: rat; for pIC50: IC50 Cytotoxicity (L6), L6 rat skeletal myoblasts, 72 h, mean of two independent measurements
Method: as §1

[3] = test system: Leishmania donovani amastigotes (strain MHOM/ET/67/L82); experiment: L. donovani axenic amastigote assay (resazurin); format: cell-based
Method: Leishmania donovani (axenic amastigote assay). […] Serial drug dilutions in duplicates were prepared covering a range from 30 to 0.041 µg/mL. […] The compounds used as positive controls in the various bioassays (see Table 1) were of commercial origin, with the exception of melarsoprol, which was a gift from WHO. Their purity (generally > 95%) was specified by the manufacturers.

[4] = test system: K1 strain of P. falciparum; experiment: Antiplasmodial [3H]-hypoxanthine incorporation assay; format: cell-based, Plasmodium falciparum
Method: Plasmodium falciparum. Antiplasmodial activity was determined using the K1 strain of P. falciparum (resistant to chloroquine and pyrimethamine). A modification of the [3H]-hypoxanthine incorporation assay was used. Briefly, infected human red blood cells (final parasitaemia and haematocrit were 0.3% and 1.25%, respectively) in RPMI 1640 medium with 5% Albumax were exposed to serial drug dilutions in microtiter plates. After 48 hours of incubation at 37°C in a reduced oxygen atmosphere, 0.5 mCi 3H-hypoxanthine was added to each well. Cultures were incubated for a further 24 h before they were harvested onto glass-fiber filters and washed with distilled water. The radioactivity was counted using a BetaplateTM liquid scintillation counter (Wallac, Zurich, Switzerland). […] From the sigmoidal inhibition curves IC50 values were calculated. Assays were run in duplicate and repeated once.

[5] = test system: T. cruzi Tulahuen strain C2C4; experiment: In vitro activity against T. cruzi in L-6 host cells (beta-galactosidase/CPRG); format: cell-based, Trypanosoma cruzi; conditions: read-out: IC50 T. cruzi (Tcr)
Method: Trypanosoma cruzi. Rat skeletal myoblasts (L-6 cells) were seeded in 96-well microtiter plates at 2,000 cells/well in 100 µL RPMI 1640 medium with 10% FBS (fetal bovine serum) and 2 mM L-glutamine. After 24 hours the medium was removed and replaced by 100 µL per well containing 5,000 trypomastigote forms of T. cruzi Tulahuen strain C2C4 containing the β-galactosidase (Lac Z) gene. Fortyeight hours later the medium was removed from the wells and replaced by […] fresh medium with or without a serial drug dilution. Seven 3-fold dilutions were used covering a range from […]. Each drug was tested in duplicate. After 96 hours of incubation the plates were inspected under an inverted microscope to assure growth of the controls and sterility. Then the substrate CPRG/ Nonidet (50 µL) was added to all wells. A colour reaction developed within 2-6 hours and could be read photometrically at 540 nm.

[6] = test system: Trypanosoma brucei rhodesiense STIB 900; experiment: In vitro activity against T. brucei rhodesiense bloodstream forms (Alamar blue); format: cell-based; conditions: for pIC50: mean of two independent measurements
Method: as §1

[7] = L6 cells (rat skeletal myoblasts)
[8] = Leishmania donovani, 72 h, pH 5.4, axenic amastigotes, pH 5.4, 72 h, mean of two independent measurements, read-out: IC50 L. donovani (Ldon)
[9] = Plasmodium falciparum, K1, K1 strain (resistant to chloroquine and pyrimethamine), mean of two independent measurements, read-out: IC50 P. falciparum (Pfc)
[10] = Trypanosoma brucei, 72 h, bloodstream forms STIB 900, 72 h, read-out: IC50 T. brucei rhodes. (Tbr)
[11] = protozoa, especially Tbr, versus L6 mammalian cells
[12] = Trypanosoma cruzi, TULAHUEN, L6, 96 h, Tulahuen C2C4 in L-6 cells, 96 h, mean of two independent measurements

SMILES | IC50 at 72 h [2, 7] [µM] | pIC50 [3, 8] | pIC50 [4, 9] | pIC50 [6, 10] | pIC50 [5, 12] | also measured
C=C1C(=O)OC2CC(C)C(C=CC(C)=O)=CCC12 (stereo not drawn) [Compound 18] | 30.2 | 4.75 | 5.11 | 5.53 |  | antiparasitic activity compared with cytotoxicity (in words) [1]: significantly higher levels of antiparasitic activity, especially against Tbr, than cytotoxicity; pIC50 ([5]; Trypanosoma cruzi, L6, Tulahuen C2C4 in L-6 cells, 96 h, mean of two independent measurements): 4.58
C=C1C(=O)OC2CC(C)C3(C=CC(C)=O)OC3CC12 (stereo not drawn) [Compound 19, 8-epixanthatin-1,5-epoxide] | 22.1 | 6.22 | 5.19 | 6.48 | 4.95 | antiparasitic activity compared with cytotoxicity (in words) [1, 11]: significantly higher levels of antiparasitic activity, especially against Tbr, than cytotoxicity; selectivity index (SI) with respect to Ldon ([3]; ratio of cytotoxic IC50 (L6) over IC50 against Ldon): 36; selectivity index (SI) with respect to Tbr ([6]; ratio of cytotoxic IC50 (L6) over IC50 against Tbr): 67
C=C1C(=O)OC2CC3(C)CCCC(=C)C3CC12 (stereo not drawn) [Compound 25] |  | < 4.85 |  | 4.63 | 4.65 | antiparasitic activity compared with cytotoxicity (in words) [1, 11]: considerably more toxic against the mammalian cells than against the protozoa; IC50 at 72 h [2]: 4.48 µM
C=C1C(=O)OC2CC3(C)CC(O)CC(=C)C3CC12 (stereo not drawn) [Compound 26] | 0.948 | < 5.40 |  | 5.11 | 4.61 | antiparasitic activity compared with cytotoxicity (in words) [1, 11]: considerably more toxic against the mammalian cells than against the protozoa
C=C1C(=O)OC2C1CCC1(C)C(O)CCC(=C)C21 (stereo not drawn) [Compound 32] |  |  |  |  |  | pIC50 ([1]; read-out: IC50 Cytotoxicity (L6), L6 rat skeletal myoblasts, 72 h, mean of two independent measurements): 4.59; pIC50 ([3]; axenic amastigotes, pH 5.4, 72 h, mean of two independent measurements, read-out: IC50 L. donovani (Ldon)): 5.13; pIC50 ([4]; K1 strain (resistant to chloroquine and pyrimethamine), mean of two independent measurements, read-out: IC50 P. falciparum (Pfc)): 4.87; pIC50 ([5]; Tulahuen C2C4 in L-6 cells, 96 h, mean of two independent measurements): 4.58; pIC50 ([6]; bloodstream forms STIB 900, 72 h, read-out: IC50 T. brucei rhodes. (Tbr)): 5.96
C=C(C(=O)OC1CC(C)=CCCC(CO)=CC2OC(=O)C(=C)C21)C(O)CO (stereo not drawn) [Compound 33] | 10.2 | 4.82 | 5.20 | 5.89 | 4.77 | 
C=C1C(=O)O[C@H]2[C@H]1CC/C(C)=C/CC[C@@]1(C)O[C@@H]21 [Compound 34, parthenolide] | 7.24 | 5.45 | 4.92 | 6.41 | 4.97 | 
CC1=CCCC2(C)OC2C2OC(=O)C(C)C2CC1 (stereo not drawn) [Compound 35] | 133 | 4.45 | < 4.70 | 4.31 | < 3.92 | 
C=C1C(=O)OC2C=C(C)CCC3OC3(CO)CC(OC(=O)C3(C)OC3C)C12 (stereo not drawn) [Compound 36] |  | 5.56 | 5.02 | 4.85 | 4.59 | pIC50 [2]: 4.87
C=C1C(=O)OC2C=C(C)CCC3OC3(COC(C)=O)CC(OC(=O)C3(C)OC3C)C12 (stereo not drawn) [Compound 37] | 7.75 | 5.28 | 5.20 | 6.32 | 4.80 | 
C=C1C(=O)OC2C=C(C)C(O)CC3OC3(C)CC(OC(=O)C(C)=CC)C12 (stereo not drawn) [Compound 38] | 13 | 4.74 | 5.05 | 6.03 | 4.78 | 
C=C1C(=O)OC2C=C(C)C(OC(C)=O)CC3OC3(C)CC(OC(=O)C(C)=CC)C12 (stereo not drawn) [Compound 39] |  |  |  |  |  | IC50 at 72 h [2]: 10.1 µM; pIC50 ([3]; Leishmania donovani, 72 h, pH 5.4, read-out: IC50 L. donovani (Ldon)): 4.52; pIC50 ([4]; Plasmodium falciparum, K1, read-out: IC50 P. falciparum (Pfc)): 5.09; pIC50 ([5]; Trypanosoma cruzi, TULAHUEN, L6, 96 h): 4.76; pIC50 ([6]; Trypanosoma brucei, 72 h, read-out: IC50 T. brucei rhodes. (Tbr), bloodstream forms STIB 900, 72 h): 6.09
C=C1C(=O)OC2C=C(C)C(O)CC3OC3(COC(C)=O)CC(OC(=O)C(C)=CC)C12 (stereo not drawn) [Compound 40] |  | 4.77 | 5.18 | 6.16 | 4.93 | pIC50 [2]: 5.18
